# Source: patent US9359367B2, “Tetrahydroquinazolinone derivatives as PARP inhibitors” (Lupin Limited, priority 2012, dated 2016)
# pIC50: −log10 of the molar value.
# Molecular target: T1, PARP1 (Homo sapiens, UniProt P09874)
# T1 construct: purchased BPS Bioscience
# Experiment: PARP1 Biochemical Assay (BPS Bioscience kit, chemiluminescence)
# Settings: histone-coated plate, biotinilated NAD+, 25° C. for 60 min, luminescence, read-out: PARP 1 inhibition IC50
# Protocol: The assay was performed using BPS Bioscience kit. The 96-well strip plate was coated with 50 μl of histone mixture and incubated at 4° C. overnight. Next day the wells were blocked by adding 100 μl of blocking buffer. The plate was washed and 25 μl of appropriate concentration of PARP1 (25-75 ng/well) was added in all the Test and Positive control wells. In Negative control wells enzyme was replaced with 25 μl of water. To it 5 μl each of 10×PARP assay buffer and activated DNA was added in all the wells (Test, Positive and Negative control wells). 10× concentration of test compounds were prepared and 5 μl test compounds were added respective wells. Reaction volume was made up to 45 μl by adding water to all the wells. Finally, 5 μl of 10×PARP assay mixture containing biotinilated NAD^+ was added in each well and the plate was incubated at ambient temperature (25° C.) for 60 min. After washing the plate 50 μl of Streptavidin-HRP was added in each well and incubated the plate at RT for 30 min. The plate was washed and the luminescence was read in PHERAStar plate reader after adding 100 μl of chemiluminescent substrate.
# PARP inhibition was calculated using the following formula: % PARP inhibition=100−[(RLU test compound treated sample−RLU negative control)/(RLU Positive control−RLU negative control)×100]
# IC50 values were calculated by plotting % inhibition against the respective concentrations of test compounds using GraphPad Prism 5.
# T1 sequence (P09874 whole entry): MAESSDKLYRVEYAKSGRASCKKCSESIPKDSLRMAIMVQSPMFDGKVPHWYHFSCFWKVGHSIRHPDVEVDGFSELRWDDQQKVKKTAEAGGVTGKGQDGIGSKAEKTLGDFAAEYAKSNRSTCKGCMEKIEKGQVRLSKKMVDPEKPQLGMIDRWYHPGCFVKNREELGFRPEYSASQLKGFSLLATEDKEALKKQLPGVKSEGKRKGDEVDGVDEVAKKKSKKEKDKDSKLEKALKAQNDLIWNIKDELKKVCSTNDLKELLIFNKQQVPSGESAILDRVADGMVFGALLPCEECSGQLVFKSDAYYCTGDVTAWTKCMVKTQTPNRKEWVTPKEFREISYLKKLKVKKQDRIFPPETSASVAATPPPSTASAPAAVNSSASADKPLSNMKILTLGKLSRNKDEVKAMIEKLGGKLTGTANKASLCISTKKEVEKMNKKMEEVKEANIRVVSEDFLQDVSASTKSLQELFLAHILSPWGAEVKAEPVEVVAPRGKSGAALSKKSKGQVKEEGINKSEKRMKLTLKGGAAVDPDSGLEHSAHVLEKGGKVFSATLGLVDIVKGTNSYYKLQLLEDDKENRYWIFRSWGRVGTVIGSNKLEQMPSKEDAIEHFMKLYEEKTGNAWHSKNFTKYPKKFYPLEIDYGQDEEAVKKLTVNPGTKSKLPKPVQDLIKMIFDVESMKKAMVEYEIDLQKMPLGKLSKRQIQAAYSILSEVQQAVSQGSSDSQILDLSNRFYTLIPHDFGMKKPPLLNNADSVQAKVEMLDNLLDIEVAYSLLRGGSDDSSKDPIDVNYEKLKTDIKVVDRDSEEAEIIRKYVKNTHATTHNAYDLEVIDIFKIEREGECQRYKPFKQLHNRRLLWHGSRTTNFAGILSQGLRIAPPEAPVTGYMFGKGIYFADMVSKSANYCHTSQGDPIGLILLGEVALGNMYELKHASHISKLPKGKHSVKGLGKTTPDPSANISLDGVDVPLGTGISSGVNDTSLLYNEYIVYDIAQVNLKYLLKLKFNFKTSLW
row,pIC50,Structure (SMILES)
1,6.30 to 9.00,"Cc1cc(F)ccc1N1CCN([C@H]2C=C(c3nc4c(c(=O)[nH]3)CC3(CC4)CC3)CC2)CC1 [Compound 95, (R)-2′-(3-(4-(4-fluoro-2-methylphenyl)piperazin-1-yl)cyclopent-1-en-1-yl)-7′,8′-dihydro-3′H-spiro[cyclopropane-1,6′-quinazolin]-4′(5′H)-one]"
2,3.30 to 5.30,"CC1(C)CC(c2nc3c(c(=O)[nH]2)CC2(CC3)CC2)=C[C@@H]1N1CCN(c2ccc(F)cc2)CC1 [Compound 71, (S)-2′-(3-(4-(4-fluorophenyl)piperazin-1-yl)-4,4-dimethylcyclopent-1-en-1-yl)-7′,8′-dihydro-3′H-spiro[cyclopropane-1,6′-quinazolin]-4′(5′H)-one]"
3,6.30 to 9.00,"O=c1[nH]c(CCCN2CC=C(c3ccccc3)CC2)nc2c1CCCC21CC1 [Compound 3, 2′-(3-(4-phenyl-5,6-dihydropyridin-1(2H)-yl)propyl)-6′,7′-dihydro-3′H-spiro[cyclopropane-1,8′-quinazolin]-4′(5′H)-one]"
4,6.30 to 9.00,"N#Cc1ccc(N2CCN([C@H]3C=C(c4nc5c(c(=O)[nH]4)CC4(CC5)CC4)CC3)CC2)cc1F [Compound 127, (R)-2-fluoro-4-(4-(3-(4′-oxo-4′,5′,7′,8′-tetrahydro-3′H-spiro[cyclopropane-1,6′-quinazolin]-2′-yl)cyclopent-2-en-1-yl)piperazin-1-yl)benzonitrile]"
5,5.30 to 6.30,"O=c1[nH]c(C2=C[C@H](N3CCN(c4c(F)cccc4F)CC3)CC2)nc2c1CC1(CC2)CC1 [Compound 110, (R)-2′-(3-(4-(2,6-difluorophenyl)piperazin-1-yl)cyclopent-1-en-1-yl)-7′,8′-dihydro-3′H-spiro[cyclopropane-1,6′-quinazolin]-4′(5′H)-one]"
6,5.30 to 6.30,"Cc1ccc(C)c(N2CCN([C@H]3C=C(c4nc5c(c(=O)[nH]4)CC4(CC5)CC4)CC3)CC2)c1 [Compound 144, (R)-2′-(3-(4-(2,5-dimethylphenyl)piperazin-1-yl)cyclopent-1-en-1-yl)-7′,8′-dihydro-3′H-spiro[cyclopropane-1,6′-quinazolin]-4′(5′H)-one]"
7,6.30 to 9.00,"Cc1cnc(N2CCN([C@H]3C=C(c4nc5c(c(=O)[nH]4)CC4(CC5)CC4)CC3)CC2)s1 [Compound 113, (R)-2′-(3-(4-(5-methylthiazol-2-yl)piperazin-1-yl)cyclopent-1-en-1-yl)-7′,8′-dihydro-3′H-spiro[cyclopropane-1,6′-quinazolin]-4′(5′H)-one]"
8,3.30 to 5.30,"O=c1[nH]c(C2=C[C@@H](N3CCN(c4ccc(F)cc4)CC3)CC2)nc2c1CC1(CC2)CC1 [Compound 43, (S)-2′-(3-(4-(4-fluorophenyl)piperazin-1-yl)cyclopent-1-en-1-yl)-7′,8′-dihydro-3′H-spiro[cyclopropane-1,6′-quinazolin]-4′(5′H)-one]"
9,5.30 to 6.30,"O=c1[nH]c(CCCN2CC3CC2CN3c2ccc(F)cc2)nc2c1CC1(CC2)CC1 (stereo not drawn) [Compound 11, 2′-(3-(5-(4-fluorophenyl)-2,5-diazabicyclo[2.2.1]heptan-2-yl)propyl)-7′,8′-dihydro-3′H-spiro[cyclopropane-1,6′-quinazolin]-4′(5′H)-one]"
10,6.30 to 9.00,"Cc1cccc(N2CCN([C@H]3C=C(c4nc5c(c(=O)[nH]4)CC4(CC5)CC4)CC3)CC2)c1 [Compound 85, (R)-2′-(3-(4-(m-tolyl)piperazin-1-yl)cyclopent-1-en-1-yl)-7′,8′-dihydro-3′H-spiro[cyclopropane-1,6′-quinazolin]-4′(5′H)-one]"
11,6.30 to 9.00,"O=c1[nH]c(CCCN2CCN(c3ccc(F)cc3)CC2)nc2c1CC1(CC2)CC1 [Compound 5, 2′-(3-(4-(4-fluorophenyl)piperazin-1-yl)propyl)-7′,8′-dihydro-3′H-spiro[cyclopropane-1,6′-quinazolin]-4′(5′H)-one]"
12,6.30 to 9.00,"Cc1cccnc1N1CCN([C@H]2C=C(c3nc4c(c(=O)[nH]3)CC3(CC4)CC3)CC2)CC1 [Compound 132, (R)-2′-(3-(4-(3-methylpyridin-2-yl)piperazin-1-yl)cyclopent-1-en-1-yl)-7′,8′-dihydro-3′H-spiro[cyclopropane-1,6′-quinazolin]-4′(5′H)-one]"
13,6.30 to 9.00,"O=c1[nH]c(CCCN2CCN(c3ccc(Cl)cc3Cl)CC2)nc2c1CC1(CC2)CC1 [Compound 34, 2′-(3-(4-(2,4-dichlorophenyl)piperazin-1-yl)propyl)-7′,8′-dihydro-3′H-spiro[cyclopropane-1,6′-quinazolin]-4′(5′H)-one]"
14,6.30 to 9.00,"O=c1[nH]c(C2=C[C@H](N3CCN(c4cncc(F)c4)CC3)CC2)nc2c1CC1(CC2)CC1 [Compound 142, (R)-2′-(3-(4-(5-fluoropyridin-3-yl)piperazin-1-yl)cyclopent-1-en-1-yl)-7′,8′-dihydro-3′H-spiro[cyclopropane-1,6′-quinazolin]-4′(5′H)-one]"
15,6.30 to 9.00,"COc1cc(F)ccc1N1CCN([C@H]2C=C(c3nc4c(c(=O)[nH]3)CC3(CC4)CC3)CC2)CC1 [Compound 133, (R)-2′-(3-(4-(4-fluoro-2-methoxyphenyl)piperazin-1-yl)cyclopent-1-en-1-yl)-7′,8′-dihydro-3′H-spiro[cyclopropane-1,6′-quinazolin]-4′(5′H)-one]"
16,6.30 to 9.00,"CNC(=O)c1ccc(N2CCN([C@H]3C=C(c4nc5c(c(=O)[nH]4)CC4(CC5)CC4)CC3)CC2)c(C)c1 [Compound 97, (R)—N, 3-dimethyl-4-(4-(3-(4′-oxo-4′,5′,7′,8′-tetrahydro-3′H-spiro[cyclopropane-1,6′-quinazolin]-2′-yl)cyclopent-2-en-1-yl)piperazin-1-yl)benzamide]"
17,5.30 to 6.30,"O=c1[nH]c(C2=C[C@@H](N3CCC(c4ccc(Cl)cc4)CC3)CC2)nc2c1CC1(CC2)CC1 [Compound 55, (S)-2′-(3-(4-(4-chlorophenyl)piperidin-1-yl)cyclopent-1-en-1-yl)-7′,8′-dihydro-3′H-spiro[cyclopropane-1,6′-quinazolin]-4′(5′H)-one]"
18,6.30 to 9.00,"O=c1[nH]c(C2=C[C@H](N3CCN(c4cccc(F)c4)CC3)CC2)nc2c1CC1(CC2)CC1 [Compound 78, (R)-2′-(3-(4-(3-fluorophenyl)piperazin-1-yl)cyclopent-1-en-1-yl)-7′,8′-dihydro-3′H-spiro[cyclopropane-1,6′-quinazolin]-4′(5′H)-one]"
19,6.30 to 9.00,"O=c1[nH]c(C2=C[C@@H](N3CCN(c4ccc(Cl)cc4)CC3)CC2)nc2c1CC1(CC2)CC1 [Compound 38, (S)-2′-(3-(4-(4-chlorophenyl)piperazin-1-yl)cyclopent-1-en-1-yl)-7′,8′-dihydro-3′H-spiro[cyclopropane-1,6′-quinazolin]-4′(5′H)-one]"
20,6.30 to 9.00,"Cc1ccc(N2CCN([C@H]3C=C(c4nc5c(c(=O)[nH]4)CC4(CC5)CC4)CC3)CC2)nc1 [Compound 124, (R)-2′-(3-(4-(5-methylpyridin-2-yl)piperazin-1-yl)cyclopent-1-en-1-yl)-7′,8′-dihydro-3′H-spiro[cyclopropane-1,6′-quinazolin]-4′(5′H)-one]"
21,6.30 to 9.00,"Cc1ccc(N2CCN([C@H]3C=C(c4nc5c(c(=O)[nH]4)CC4(CC5)CC4)CC3)CC2)c(Cl)c1 [Compound 92, (R)-2′-(3-(4-(2-chloro-4-methylphenyl)piperazin-1-yl)cyclopent-1-en-1-yl)-7′,8′-dihydro-3′H-spiro[cyclopropane-1,6′-quinazolin]-4′(5′H)-one]"
22,3.30 to 5.30,"O=c1[nH]c(C2=C[C@H](N3CCN(c4c(F)cccc4Cl)CC3)CC2)nc2c1CC1(CC2)CC1 [Compound 139, (R)-2′-(3-(4-(2-chloro-6-fluorophenyl)piperazin-1-yl)cyclopent-1-en-1-yl)-7′,8′-dihydro-3′H-spiro[cyclopropane-1,6′-quinazolin]-4′(5′H)-one]"
23,6.30 to 9.00,"O=c1[nH]c(C2=C[C@H](N3CCN(c4ccsc4)CC3)CC2)nc2c1CC1(CC2)CC1 [Compound 91, (R)-2′-(3-(4-(thiophen-3-yl)piperazin-1-yl)cyclopent-1-en-1-yl)-7′,8′-dihydro-3′H-spiro[cyclopropane-1,6′-quinazolin]-4′(5′H)-one]"
24,6.30 to 9.00,"CNC(=O)c1ccc(N2CCN([C@H]3C=C(c4nc5c(c(=O)[nH]4)CC4(CC5)CC4)CC3)CC2)c(F)c1 [Compound 68, (R)-3-fluoro-N-methyl-4-(4-(3-(4′-oxo-4′,5′,7′,8′-tetrahydro-3′H-spiro[cyclopropane-1,6′-quinazolin]-2′-yl)cyclopent-2-en-1-yl)piperazin-1-yl)benzamide]"
25,6.30 to 9.00,"Cc1ncccc1N1CCN([C@H]2C=C(c3nc4c(c(=O)[nH]3)CC3(CC4)CC3)CC2)CC1 [Compound 129, (R)-2′-(3-(4-(2-methylpyridin-3-yl)piperazin-1-yl)cyclopent-1-en-1-yl)-7′,8′-dihydro-3′H-spiro[cyclopropane-1,6′-quinazolin]-4′(5′H)-one]"
26,6.30 to 9.00,"O=c1[nH]c(C2=C[C@H](N3CCN(c4ccc(F)cc4)CC3)CC2)nc2c1CCCC21CC1 [Compound 48, (R)-2′-(3-(4-(4-fluorophenyl)piperazin-1-yl)cyclopent-1-en-1-yl)-6′,7′-dihydro-3′H-spiro[cyclopropane-1,8′-quinazolin]-4′(5′H)-one]"
27,3.30 to 5.30,"O=c1[nH]c(CCCN2CCN(c3ccc(F)cc3)CC2)nc2c1CCC1(CC1)C2 [Compound 15, 2′-(3-(4-(4-fluorophenyl)piperazin-1-yl)propyl)-5′,6′-dihydro-3′H-spiro[cyclopropane-1,7′-quinazolin]-4′(8′H)-one]"
